Reference: patent US11244760B2, “Prediction device based on inter-organ cross talk system” (KARYDO THERAPEUTIX, INC., priority 2015, dated 2022)
“And” between values parts separate entries of the source, which are not always exact repeats. Equal entries are not always repeated.

Legend:
[1] = Blood glucose level after administration of STZ (simple blood glucose meter, tail vein); format: in vivo, mouse; details: STZ 75 mg/kg intraperitoneally for 3 consecutive days, 4-week-old male C57BL/6NCr Slc mice, fasted overnight; individual animals
Procedure: (§1) 0.01% citrate buffer solution (pH 4.5) of streptozotocin (STZ) was intraperitoneally administered to 4-week-old male C57BL/6NCr Slc mice in an amount of 75 mg/kg in terms of STZ for 3 consecutive days (administered solution amount: 10 mL/kg). 0.01% citrate buffer solution (pH 4.5), which is a solvent, was intraperitoneally administered to the control group for 3 consecutive days (administered solution amount: 10 mL/kg). The animals from which the organs and tissue were to be collected were fasted overnight from the day before dissection. On the day of dissection, the tail vein of each mouse was cut, and the blood glucose level was measured with a simple blood glucose meter. On the following day, the mice were euthanized by cervical dislocation without anesthesia, and the organs and tissue were collected. After the wet weights of the collected organs and tissue were measured, the organs and tissue were rapidly frozen in liquid nitrogen and stored at −80° C.

Saa1 = experiment: D-iOrgans real-time PCR, STZ/Control relative expression, Saa1; format: in vivo, mouse; details: liver of the STZ administration mice
Procedure: (§2) 1 μg of total RNA obtained from each tissue was used as a template for cDNA synthesis, and cDNA was synthesized using Oligo dT20 primer according to the standard protocol of Superscript III First-Strand Synthesis Supermix (Life Technologies). After the synthesized cDNA was diluted 20-fold with 10-fold diluted TE buffer (10 mM Tris-HCl, pH 8.0, 0.1 mM EDTA), real-time PCR was performed with a […] (Roche) according to the standard protocol of LightCycler 480 SYBR Green I Master (Roche) and Cp values were measured. The relative expression level of each gene relative to the reference gene was calculated by comparing the Cp value obtained for each gene with the Cp value for β2-microglobulin (B2m) or Maea as a reference gene, and MI/Sham was determined. However, with the primer set for Hba-a, Hba-a1 and Hba-a2 cannot be distinguished in PCR, and with the primer set for Hbb-b, Hbb-bs, and Hbb-bt cannot be distinguished in PCR. […]
(§3) Real-time PCR was conducted according to the procedure described in 1-4 (4) of “I. iOrgans” to measure Cp values. The relative expression level of each gene relative to the reference gene was calculated by comparing the Cp value obtained for each gene with the Cp value for β2-microglobulin (B2m) or Maea as a reference gene to, and STZ/Control was determined. […]

[2] = Body weight at dissection after administration of STZ; format: in vivo, mouse; details: STZ 75 mg/kg intraperitoneally for 3 consecutive days, 4-week-old male C57BL/6NCr Slc mice; individual animals
Procedure: as §1

Hamp = experiment: D-iOrgans real-time PCR, STZ/Control relative expression, Hamp; format: in vivo, mouse
Procedure: as §2, §3

[3] = administered to a mouse for a week or more; cited from earlier work

## CN(N=O)C(=O)N[C@H]1C(O)O[C@H](CO)[C@@H](O)[C@@H]1O (mixture of isomers) [STZ, streptozotocin]
[1]
  Blood glucose: 65 mg/dL and 83 mg/dL and 42 mg/dL
Saa1
  Expression of Saa1 in the liver (STZ/Control): increase
[2]
  Body weight at dissection: 12.8 g (2×) and 10.3 g
Hamp; heart, STZ administration mice, day after 3 days of STZ
  Expression of Hamp in the heart (STZ/Control): increase
Hamp; inferred from known function of Hamp (iron metabolism)
  Predicted side effect in the heart from Hamp expression: decrease the amount of iron in cardiac cells
[3]
  Glycemic state after long administration: becomes hyperglycemic
